The results in this text go back to the NIST ThermoML archive (doi:10.1016/j.fluid.2005.02.014).

SMILES strings stand for the structures. Numbers after ± are expanded uncertainties.

For this data set the following is noted: Liquid; for mass density: 298.15 K, 101.33 kPa.

Consider `CC(C)(C)Cl` [2-chloro-2-methylpropane], for which the mass density (commonly the mass of a sample divided by its volume) was found to be 836.45 ± 0.65 kg/m3 and the Normal boiling temperature came out at 50.73 ± 0.26 °C.

In the case of `CCCCCl` [1-chlorobutane], the mass density came out at 880.67 ± 0.6 kg/m3 and the Normal boiling temperature was 78.37 ± 0.26 °C.

On to `C1CCOCC1` [tetrahydropyran], for which the Normal boiling temperature was found to be 88.08 ± 0.26 °C. For the same compound, where the note is “Vibrating tube method”, the mass density is 878.8 ± 0.5 kg/m3.

On to `CC(C)CCl` [1-chloro-2-methylpropane], for which the mass density came out at 870.94 ± 0.99 kg/m3 and the Normal boiling temperature is 68.90 ± 0.26 °C.

In the case of `CCC(C)Cl` (stereo not given) [2-chlorobutane], the mass density was 867.26 ± 0.62 kg/m3 and the Normal boiling temperature is 68.11 ± 0.26 °C.
